Reference: paper PMC10799935, “Discovery of a peripheral 5HT2A antagonist as a clinical candidate for metabolic dysfunction-associated steatohepatitis” (Nature Communications, 2024)
“And” between values parts separate entries of the source, which are not always exact repeats. Equal entries are not always repeated.

How the values were obtained:
5HT1A (h) = biological target: T1, 5HT1A (h) (Homo sapiens, UniProt P08908); assay: 5HT subtype antagonism assay (Eurofins Cerep): 5HT1A; format: cell-based; conditions: concentration not given
T1 construct: host or cells: BA/F3 cells

in vitro = conditions: Chinese hamster
[1] = test system: CDAHFD-fed C57BL/6 J mice; assay: CDAHFD mice: Sirius red staining (fibrotic area);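 as to Sirius red staining (fibrotic area), individual mouse: percent of liver section area positive for Sirius red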; format: in vivo, mouse; set-up: Sirius red staining (fibrotic area), individual mouse / Sirius red staining (fibrotic area), Average: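 percent of liver section area positive for Sirius red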; conditions: for Sirius red staining (fibrotic area), Average / Sirius red staining (fibrotic area), individual mouse: CDAHFD mice; for Sirius red staining (fibrotic area), Average: group average n=5, CDAHFD+Vehicle 5.533, Vehicle 0.905; for Sirius red staining (fibrotic area), individual mouse: individual animals No. 1-5 (Fig.4e)
Text: C57BL/6 J male mice were purchased from the Japan SLC. Inc (Hamamatsu, Japan). Mice (5 weeks old) were fed Teklad Certitied Irradiated Global 18% protein rodent diet purchased from Dooyeol Biotech Co. Ltd (Seoul, South Korea) during the acclimation period. The liver fibrosis/inflammation-induced groups were CDAHFD-fed (A06071302, Research diet). […] All animal experiments complied with the relevant ethical regulations.
Mouse liver tissues were fixed in 4% formalin solution (Sigma–Aldrich, St. Louis, MO, USA) and embedded in paraffin. 4-μm-thick liver sections were deparaffinized in xylene, and rehydrated through descending grades of ethanol. To evaluate liver fibrosis, sections were stained with Sirius red solution and subjected to immunohistochemical staining. Tissue sections, after deparaffinization, underwent a 16-hour incubation in a solution containing 0.1% Direct Red 80 (365548, Sigma-Aldrich) dissolved in Picric acid (P-201, Spectrum Chemical, CA, USA) for Sirius red staining. The sections were briefly immersed in a 0.01 N HCl solution (1129, Ducksan, Republic of Korea) for 2 min. and then rinsed with distilled water for destaining. Subsequently, the sections underwent dehydration through […] grades of ethanol. Immunohistochemical staining was performed using the Polyview Plus HRP-DAB (anti-Rabbit) Kit (ENZ-KIT159-0150, ENZO Life Science, NY, USA) following the manufacturers’ instructions. Deparaffinized sections were boiled in IHC-TekTM Epitope Retrieval solution (IW-1100, IHCWORLD, MD, USA) for 45 min., cooled for 1 h, incubated in a 3% H2O2 solution (69355-0350, JUNSEI, Japan) for 15 min., washed, and then incubated overnight with primary antibodies (α-SMA, ab5694, Abcam, 1:500 dilution; TNF-α, ab6671, Abcam, 1:100 dilution and IL-1β, ab9722, Abcam, 1:100 dilution). Subsequently, the sections were treated with Polyview Plus HRP for 2 h and developed with DAB chromogen/substrate. Stained […] sections were confirmed by light microscopy (Olympus BX53 upright microscope, Tokyo, Japan). The degree of hepatic fibrosis and immunohistochemical staining was quantified by morphometric analysis of stained liver sections using NIH ImageJ software.

α-SMA = assay: CDAHFD mice: liver α-SMA RNA expression (qRT-PCR); format: in vivo, mouse; conditions: for Relative liver α-SMA expressions in mice, measured using quantitative RT-PCR: individual mice and Average
Text: C57BL/6 J male mice were purchased from the Japan SLC. Inc (Hamamatsu, Japan). Mice (5 weeks old) were fed Teklad Certitied Irradiated Global 18% protein rodent diet purchased from Dooyeol Biotech Co. Ltd (Seoul, South Korea) during the acclimation period. The liver fibrosis/inflammation-induced groups were CDAHFD-fed (A06071302, Research diet). […]. […] All animal experiments complied with the relevant ethical regulations.
The frozen liver tissue was homogenized and put into QiAzol (Qiagen, Hilden) to isolate RNA, and 4 μg of RNA was synthesized into cDNA using the RevertAid First Strand cDNA synthesis kit (Thermo Fischer, Waltham). The expressions of mouse collagen I (Forward: 5’-TGTGTTCCCTACTCAGCCGTG-3’. Reverse: 5’-CATCGGTCATGCTCTCTCCAA-3’), mouse α-SMA (Forward:5’-TCCTGACGCTGAAGTATCCGAT-3’, Reverse: 5’-GGCCACACAAAGCTCGTTATAG-3’) and mouse 36B4 (Forward: 5’-ACCTCCTTCTTCCAGGCTTT-3’, Reverse: 5’-CTCCAGTCTTTATCAGCTGC-3’) as house-keeping gene were measured using ViiA 7 Real-time PCR system (Thermo Fischer scientific).

[2] = test system: lipogenesis-related genes; assay: DIO mice: qRT-PCR of lipogenesis-related genes in liver; format: in vivo, mouse; conditions: for Fasn gene expression, Predicted (LS) mean diff. / Htr2a gene expression, Predicted (LS) mean diff. / Pparγ gene expression, Predicted (LS) mean diff. / Srebp1c gene expression, Predicted (LS) mean diff.: Tukey's multiple comparisons test; for Fasn gene expression, Predicted (LS) mean / Htr2a gene expression, Predicted (LS) mean / Pparγ gene expression, Predicted (LS) mean / Srebp1c gene expression, Predicted (LS) mean: vehicle = 1
Description: Total RNA extractions from harvested tissues were performed using TRIzol according to the manufacturer’s protocol. After TURBO DNase (Invitrogen) treatment, 2 μg of total RNA was used to generate complementary DNA with a High-Capacity cDNA Reverse Transcription Kit (Thermo Fisher Scientific). Quantitative RT-PCR was performed with Fast SYBR Green Master Mix (Thermo Fisher Scientific) and a Viia 7 Real-time PCR System (Thermo Fisher Scientific) according to the manufacturer’s instructions. Gene expression was relatively quantified based on the delta-delta Ct (threshold cycle) method with the beta-actin gene as a reference gene. The sequence of primers can be found in the Supporting Information (Supplementary Table 2).

[3] = CDAHFD-fed 11c vs CDAHFD-fed vehicle group

T1 sequence (P08908 whole entry): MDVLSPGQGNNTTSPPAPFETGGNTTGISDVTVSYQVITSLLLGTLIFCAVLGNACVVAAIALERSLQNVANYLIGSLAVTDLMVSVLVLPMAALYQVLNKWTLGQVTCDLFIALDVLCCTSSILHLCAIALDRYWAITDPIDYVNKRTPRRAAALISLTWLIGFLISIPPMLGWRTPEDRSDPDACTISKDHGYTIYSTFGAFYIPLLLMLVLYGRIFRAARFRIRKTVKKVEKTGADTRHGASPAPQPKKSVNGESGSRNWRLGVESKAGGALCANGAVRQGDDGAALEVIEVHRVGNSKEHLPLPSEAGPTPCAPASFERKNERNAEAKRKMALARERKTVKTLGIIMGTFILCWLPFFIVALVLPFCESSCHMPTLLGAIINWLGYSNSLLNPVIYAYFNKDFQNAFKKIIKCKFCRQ

Cc1nc2n(c(=O)c1CCN1CCC(=C3c4ccc(Cl)cc4CCc4cccnc43)CC1)CCCC2O (centres unmarked) [Compound 11c]
Selectivity 1 A: % inhibition (5HT1A (h)): 9% | IC50 (in vitro): > 100 µM | Sirius red staining (fibrotic area), Average ([1]; 11c 5 mpk): 3.015 | Sirius red staining (fibrotic area), individual mouse ([1]; 11c 5 mpk): 3.008 and 1.579 and 3.604 and 3.231 and 3.651 | Sirius red staining (fibrotic area), Average ([1]; 11c 10mpk): 3.818 | Sirius red staining (fibrotic area), individual mouse ([1]; 11c 10mpk): 2.883 and 3.981 and 4.409 and 4.507 and 3.312 | collagen accumulation in liver tissue (Sirius red staining) [1, 3]: significant decrease | Relative liver α-SMA expressions in mice, measured using quantitative RT-PCR (α-SMA; CDAHFD+11c 5 mpk): 2.564 and 0.488 and 1.651 and 1.165 and 1.498 | Relative liver α-SMA expressions in mice, measured using quantitative RT-PCR (α-SMA; CDAHFD+11c 5 mpk, mean): 1.473 | Relative liver α-SMA expressions in mice, measured using quantitative RT-PCR (α-SMA; CDAHFD+11c 10mpk): 2.015 and 1.845 and 1.808 and 2.373 and 1.519 | Relative liver α-SMA expressions in mice, measured using quantitative RT-PCR (α-SMA; CDAHFD+11c 10mpk, mean): 1.912 | mRNA expression of α-SMA in liver tissue (α-SMA; [3]): significantly decreased | Fasn gene expression, Predicted (LS) mean diff. ([2]; 11c 5mpk vs. 11c 10mpk): 0.1848 | Htr2a gene expression, Predicted (LS) mean diff. ([2]; 11c 5mpk vs. 11c 10mpk): 0.09643 | Pparγ gene expression, Predicted (LS) mean diff. ([2]; 11c 5mpk vs. 11c 10mpk): -0.1385 | Srebp1c gene expression, Predicted (LS) mean diff. ([2]; 11c 5mpk vs. 11c 10mpk): 0.2716 | Fasn gene expression, Predicted (LS) mean ([2]; 11c 5mpk): 0.7446 | Htr2a gene expression, Predicted (LS) mean ([2]; 11c 5mpk): 0.5102 | Pparγ gene expression, Predicted (LS) mean ([2]; 11c 5mpk): 0.8935 | Srebp1c gene expression, Predicted (LS) mean ([2]; 11c 5mpk): 0.7676 | Fasn gene expression, Predicted (LS) mean ([2]; 11c 10mpk): 0.5598 | Htr2a gene expression, Predicted (LS) mean ([2]; 11c 10mpk): 0.4138 | Pparγ gene expression, Predicted (LS) mean ([2]; 11c 10mpk): 1.032 | Srebp1c gene expression, Predicted (LS) mean ([2]; 11c 10mpk): 0.496 | expression of Fasn ([2]; DIO mice, 10mpk): decreased | expression of Srebp1c ([2]; DIO mice, 10mpk): reduced | expression of lipogenesis-related genes ([2]; DIO mice, liver, vs vehicle): reduced | Fasn gene expression, Predicted (LS) mean diff. ([2]; Vehicle vs. 11c 5mpk): 0.2554 | Htr2a gene expression, Predicted (LS) mean diff. ([2]; Vehicle vs. 11c 5mpk): 0.4898 | Pparγ gene expression, Predicted (LS) mean diff. ([2]; Vehicle vs. 11c 5mpk): 0.1065 | Srebp1c gene expression, Predicted (LS) mean diff. ([2]; Vehicle vs. 11c 5mpk): 0.2324 | Fasn gene expression, Predicted (LS) mean diff. ([2]; Vehicle vs. 11c 10mpk): 0.4402 | Htr2a gene expression, Predicted (LS) mean diff. ([2]; Vehicle vs. 11c 10mpk): 0.5862 | Pparγ gene expression, Predicted (LS) mean diff. ([2]; Vehicle vs. 11c 10mpk): -0.03198 | Srebp1c gene expression, Predicted (LS) mean diff. ([2]; Vehicle vs. 11c 10mpk): 0.504
